Measured values reported in PubChem BioAssay (NCI).
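Cultured in 96-well plates, cells were exposed to test compound for 48 hours across five concentrations. GI50 is the concentration that inhibits growth by half. TGI: total growth inhibition.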

Legend:
Assay in all cases: NCI tumour cell line growth inhibition, 48 h
KM20L2 colon = test system: KM20L2 colon
M19-MEL melanoma = test system: M19-MEL melanoma
DLD-1 colon = test system: DLD-1 colon
HOP-18 NSCLC = test system: HOP-18 NSCLC
DMS 114 small cell lung = test system: DMS 114 small cell lung
MDA-N = test system: MDA-N
DMS 273 small cell lung = test system: DMS 273 small cell lung
RXF-631 renal = test system: RXF-631 renal
P388 leukemia = test system: P388 leukemia
SN12K1 renal = test system: SN12K1 renal
P388/ADR leukemia = test system: P388/ADR leukemia

| SMILES | TGI (KM20L2 colon) | TGI (M19-MEL melanoma) | TGI (DLD-1 colon) | TGI (HOP-18 NSCLC) | TGI (DMS 114 small cell lung) | TGI (MDA-N) | TGI (DMS 273 small cell lung) | TGI (RXF-631 renal) | other results |
| --- | --- | --- | --- | --- | --- | --- | --- | --- | --- |
| O=c1[nH]c(=O)n(C2OC(CO)C(O)C2O)cc1F (stereo unspecified) | > 100 µM | > 100 µM | > 100 µM | > 100 µM | > 100 µM | > 70.5 µM | > 100 µM | > 100 µM | – |
| CCSCCCC(=O)O | – | – | – | – | – | > 100 µM | – | – | – |
| Nc1ncnc2c1ncn2CCCCC(=O)O | – | – | – | – | – | > 100 µM | – | – | – |
| Cc1ccc(NC(=O)CCC(=O)C2Cc3ccccc3C2=O)cc1C (stereo unspecified) | > 100 µM | > 100 µM | > 100 µM | > 100 µM | > 100 µM | – | > 100 µM | – | – |
| COc1cc(/C=C/c2ccnc3ccccc23)cc(OC)c1OC | – | – | – | – | – | 1.74 µM | – | – | – |
| C/C(=N\NC(=S)N1CCN(c2ccccn2)CC1)c1cccc2cccnc12 | – | – | – | – | – | > 100 µM | – | – | – |
| CCc1cccc(NC(=O)c2cc(/C=C/c3ccccc3)[nH]c(=S)n2)c1 | > 100 µM | > 100 µM | – | > 100 µM | > 100 µM | – | > 100 µM | – | – |
| CC[P+]1(c2ccccc2)CCCCC1 | > 100 µM | > 100 µM | > 100 µM | > 100 µM | > 100 µM | – | > 100 µM | > 100 µM | – |
| CCN(CC)CCCC(C)Nc1ccnc(/C=C/c2ccc(Cl)cc2)c1 (stereo unspecified) | – | – | – | – | – | 3.62 µM | – | – | – |
| O=C(Nc1cc2cc([N+](=O)[O-])ccc2oc1=O)c1cccs1 | – | – | – | – | – | > 100 µM | – | – | – |
| C=C1C(C(=O)O)C1C(=O)O (stereo unspecified) | > 100 µM | > 100 µM | > 100 µM | > 100 µM | > 100 µM | – | > 100 µM | – | – |
| CC(C)(C)OC1=C(OC(C)(C)C)C(O)(c2ccc(Cl)cc2)C1=O (stereo unspecified) | – | > 100 µM | > 100 µM | > 100 µM | > 100 µM | – | > 100 µM | > 100 µM | – |
| NC(=O)c1ncn2c(=O)n(CCCl)nnc12 | 319 µM | 376 µM | 720 µM | 1130 µM | 131 µM | 338 µM | 275 µM | – | TGI (P388 leukemia): 482 µM; TGI (SN12K1 renal): 266 µM; TGI (P388/ADR leukemia): 335 µM |
| CCc1ccccc1NC(=O)C(=O)C(C#N)c1c(Cl)cccc1Cl (stereo unspecified) | > 100 µM | > 100 µM | > 100 µM | – | – | – | > 100 µM | > 100 µM | – |
| COc1ccc(/C=C/c2nc(=S)[nH][nH]2)cc1OC | > 100 µM | > 100 µM | > 100 µM | – | > 100 µM | – | > 100 µM | – | – |
| O=C1C2C3C=C4c5ccccc5N(c5ccccc5)C4([C@@H]2C(=O)N1c1ccc(F)cc1)[C@H]1C(=O)N(c2ccc(F)cc2)C(=O)[C@@H]31 (stereo partly specified) | – | > 100 µM | > 100 µM | > 100 µM | > 100 µM | – | – | – | – |
| O=C(O)c1cc(Cl)cc(Cc2cc(Cl)cc(C(=O)O)c2O)c1O | – | – | – | – | – | > 100 µM | – | – | – |
| Oc1cc(O)c2c(c1)OC(c1ccc(O)c(O)c1)C(O)C2c1c(O)cc(O)c2c1OC(c1ccc(O)c(O)c1)C(O)C2 (stereo unspecified) | – | – | – | – | – | > 100 µM | – | – | – |

| SMILES | TGI (KM20L2 colon) | TGI (M19-MEL melanoma) | TGI (DLD-1 colon) | TGI (HOP-18 NSCLC) | TGI (DMS 114 small cell lung) | TGI (MDA-N) | TGI (DMS 273 small cell lung) | TGI (RXF-631 renal) | other results |
| --- | --- | --- | --- | --- | --- | --- | --- | --- | --- |
| O=C1c2ccccc2C(=O)c2sc(Nc3ccc([N+](=O)[O-])cc3)nc21 | 45.6 µM | 3 µM | 11.5 µM | 9.03 µM | 6.32 µM | 3.49 µM | 14.6 µM | > 55.1 µM | – |
| CNC(=O)NCCN1N=C(C)/C(=C\c2ccccc2)CC1=O | – | > 100 µM | > 100 µM | – | – | – | > 100 µM | > 100 µM | – |
| O=C(O)c1[nH]c2c([N+](=O)[O-])cc([N+](=O)[O-])cc2c1C(=O)O | – | – | – | – | – | 92.9 µM | – | – | – |
| NS(=O)(=O)c1cc(C(=O)O)c(Cl)c([N+](=O)[O-])c1Cl | – | – | – | – | – | > 100 µM | – | – | – |
| CCC(C)C(=O)OC1CCC=C2C=CC(C)C(CCC3CC(O)CC(=O)O3)C21 (stereo unspecified) | – | – | – | – | – | > 100 µM | – | – | – |
| N#CC(C#N)=C1CCC2C(=C(C#N)C#N)CCC12 (stereo unspecified) | > 100 µM | > 100 µM | > 100 µM | – | > 100 µM | – | > 100 µM | > 100 µM | – |
| N#CC1=C(c2ccccc2)OC2(N)OC(c3ccccc3)=C(C#N)C12C#N (stereo unspecified) | > 100 µM | > 100 µM | > 100 µM | 75.1 µM | > 100 µM | – | > 100 µM | > 100 µM | – |
| CC(=O)[CH-]C(=O)c1ccccc1.CC(=O)[CH-]C(=O)c1ccccc1.CC(=O)[CH-]C(=O)c1ccccc1.[Br-].[Zr+4] | > 100 µM | > 100 µM | > 100 µM | – | – | – | – | – | GI50 (KM20L2 colon): 51.6 µM; GI50 (M19-MEL melanoma): 85.8 µM; GI50 (DLD-1 colon): 28.1 µM |
| O=C(O)CCSC(=O)Nc1ccccc1 | > 100 µM | – | > 100 µM | – | – | – | > 100 µM | – | – |
| O=C1CCc2ccc(O)c(c2)Oc2ccc(cc2)[C@@H]2O[C@@H]2CO1 | > 100 µM | > 100 µM | > 100 µM | 80.7 µM | 67 µM | – | – | – | – |
| CN(C)CCNC(=O)c1cccc2c1nc(-c1ccncc1)c1ccccc12 | – | 11.9 µM | 14.2 µM | 51.1 µM | 14.2 µM | – | 12.3 µM | – | – |
| CC(=N/NC(N)=S)/C(C)=N/NC(N)=S | – | – | – | – | – | > 100 µM | – | – | – |
| CC(=N\O)/C(C)=N/O.CC(=N\O)/C(C)=N/O.[Fe].[NH2-].c1c[nH]cn1 | – | – | – | – | – | > 100 µM | – | – | GI50 (MDA-N): > 100 µM |
| C/C=C1/C(=Cc2[nH]c(C=c3[nH]/c(=C/C4=NC(=O)C(CC)=C4C)c(C)c3CCC(=O)O)c(CCC(=O)O)c2C)NC(=O)C1C (stereo unspecified) | > 50 µM | 41.6 µM | > 50 µM | > 50 µM | > 50 µM | – | 37.1 µM | > 50 µM | – |
| CCOC(=O)CCn1cnc(N)n1 | > 100 µM | > 100 µM | > 100 µM | > 100 µM | > 100 µM | – | > 100 µM | > 100 µM | – |
| COc1ccc(C(Nc2ccccn2)c2cc(C(C)(C)C)cc(C(C)(C)C)c2O)cc1 (stereo unspecified) | – | – | – | – | – | > 100 µM | – | – | – |
| O=C(NCc1ccccc1)C1C(=O)C(=O)N(Cc2ccccc2)C1=O (stereo unspecified) | > 100 µM | > 100 µM | > 100 µM | > 100 µM | – | – | > 100 µM | > 100 µM | – |
